The results in this text go back to PubChem BioAssay AID1549 (Sanford-Burnham Center for Chemical Genomics, 2009).

Calls of active or inactive are those of the source. No rule for the calls is given here.

The Kd is a measure of binding affinity in units of concentration.

The target in this test is Influenza A virus M2 proton channel (A/TW/4845/1999 H1N1). Briefly: NMR binding screen, influenza A virus M2 proton channel, Kd (AID 1549). The note with it: M2 protein.
Take `O=c1[nH]c2ccccc2c(=O)n1CCCO`: the Kd is > 4 mM (inactive).
For `Cc1n[nH]c(=S)n(/N=C/c2ccccc2)c1=O`, the Kd is > 4 mM (inactive).
To `O=C1CN(C(=O)CN2CCOCC2)c2ccccc2N1` belongs > 4 mM (inactive).
In the case of `Cc1ccccc1-n1c(-c2cccnc2)n[nH]c1=S`, the Kd is > 4 mM (inactive).
In the case of `O=C1c2ccccc2C(=O)N1/N=C/c1ccc[nH]1`, the Kd is > 4 mM (inactive).
For the compound `Cc1cc2cc3c(C)cc(=O)oc3c(C)c2o1`, the Kd is > 4 mM (inactive).
Regarding `CC(C)(C)CC(=O)NC1=NCCS1`, the Kd is > 4 mM (inactive).
To `Cc1nn(-c2ccccc2)nc1CN` belongs > 4 mM (inactive); to `CC(=O)Nc1ccncc1NC(C)=O`, > 4 mM (inactive); to `S=c1ccc(N2CCCCC2)n[nH]1`, > 4 mM (inactive).
For `CN(C)c1ccc(CNn2cnnc2)cc1` the value was > 4 mM (inactive).
To `CC(C)n1c(-c2ccncc2)n[nH]c1=S` belongs > 4 mM (inactive).
In the case of `Cc1cc(C(=O)Nc2sc(C)c(C)c2C#N)c(C)o1`, the Kd was > 4 mM (inactive).
To `OCCN1CCN(C(=S)c2ccc(Cl)cc2)CC1` belongs > 4 mM (inactive); to `Cc1nn(-c2ccccc2)nc1C(N)=O`, > 4 mM (inactive); to `CCC(C)C(=O)O[C@H]1[C@H](O)C2C(CN3CC(C)CCC3[C@@]2(C)O)C2C[C@]34O[C@]5(O)C(OC(=O)C(C)(O)CC)CC[C@@]3(C)C5C(OC(C)=O)[C@@H](OC(C)=O)C4[C@@]21O` (stereo partly drawn), > 4 mM (inactive).
For `O=c1[nH]c2c(c(=O)n1C1CCCCC1)CCC2`, the Kd was > 4 mM (inactive).
To `NC(=O)c1ccc(SCC(=O)O)c([N+](=O)[O-])c1` belongs > 4 mM (inactive).
To `O=C(O)CCCCCCCC(=O)O` belongs > 4 mM (inactive); to `O=C1C=C(O)c2ccccc2C1=O`, > 4 mM (inactive).
To `Cc1n[nH]c(C)c1CN` belongs > 4 mM (inactive); to `CCNC(CC(=O)Nc1ccc(O)cc1)C(=O)O` (stereo not drawn), > 4 mM (inactive).
As to `CNc1nnc(Cc2csc(N)n2)s1`, the Kd was > 4 mM (inactive).
For the compound `O=C(O)c1ccc2nsnc2c1`, the Kd is > 4 mM (inactive).
To `CC(C)=CC(=O)Nc1ccc2c(c1)OCO2` belongs > 4 mM (inactive).
For `COc1cc2c(cc1O)[C@@H](Cc1ccc(O)cc1)[N+](C)(C)CC2` the value was > 4 mM (inactive); for `CC(CCC(=O)O)[C@H]1CCC2C3C[C@H](O)[C@@H]4C[C@H](O)CC[C@]4(C)C3CC[C@@]21C` (stereo partly drawn), > 4 mM (inactive); for `CSc1nnc2c(n1)OC(C)=Nc1ccccc1-2`, > 4 mM (inactive).
Take `Cc1nccn1CCC(=O)O`: the Kd was > 4 mM (inactive).
For `CC(=O)O[C@H]1CC[C@@]2(C)C(C[C@@H](OC(C)=O)[C@@]3(C)C4=CC(=O)O[C@@H](c5ccoc5)[C@]4(C)CCC23)C1(C)C` (stereo partly drawn), the Kd is > 4 mM (inactive).
As for `Cn1cc(C(=O)N/N=C/c2ccccc2)ccc1=O`, the Kd is > 4 mM (inactive).
For `C1CCN2C[C@@H]3C[C@H](CN4CCCC[C@@H]34)[C@H]2C1` the value was > 4 mM (inactive); for `CC1(NC(=O)NCc2ccccc2)CCS(=O)(=O)C1` (stereo not drawn), > 4 mM (inactive); for `CC(C)=CCc1c(O)cc2occ(-c3ccc4c(c3)OCO4)c(=O)c2c1O`, > 4 mM (inactive).
To `COc1ccc(-c2cc(=O)c3c(O)cc(O[C@H]4O[C@H](CO[C@@H]5O[C@@H](C)[C@H](O)[C@@H](O)[C@H]5O)[C@@H](O)[C@H](O)[C@H]4O)cc3o2)cc1` belongs > 4 mM (inactive).
To `Nc1ccc2c(c1)COc1ccccc1O2` belongs > 4 mM (inactive).
Regarding `CC1NC(C(=O)O)Cc2c1[nH]c1ccccc21` (stereo not drawn), the Kd was > 4 mM (inactive).
For the compound `Cc1cc(C)nc(/N=C(/N)N2CCN(C)CC2)n1`, the Kd was > 4 mM (inactive).
With `CC(=O)Nc1ccc(C(=O)NC2=NCCS2)cc1`, the Kd was > 4 mM (inactive).
`O=C1NC(=O)/C(=C\c2ccco2)S1`: the Kd is > 4 mM (inactive).
To `CN1C2CC3C[C@H]1C(O3)C2O` (stereo partly drawn) belongs > 4 mM (inactive); to `Cc1cc(NC(=O)NCCCSc2nncn2C)no1`, > 4 mM (inactive); to `CN1C(=O)/C(=C\c2ccc[nH]2)SC1=S`, > 4 mM (inactive).
To `Cn1nnc2cc(C(=O)NC3=NCCS3)ccc21` belongs > 4 mM (inactive); to `O=C(CNC(=O)c1ccc(F)cc1)NC1=NCCS1`, > 4 mM (inactive).
For `O=C(Nn1cnnc1)c1cc2c(s1)CCCCC2` the value was > 4 mM (inactive).
For the compound `Cc1ccc(S(C)(=O)=O)s1`, the Kd is > 4 mM (inactive).
To `CC1=[N+]([O-])C2(N)CCc3c(no[n+]3[O-])C2(O)C1` (stereo not drawn) belongs > 4 mM (inactive); to `Cc1nc(N2CCOCC2)[nH]c(=O)c1C`, > 4 mM (inactive); to `Cc1occc1C(=O)Nc1nnc(-c2ccncc2)s1`, > 4 mM (inactive).
`Cc1cc(-c2ccc(Cl)cc2)n2nc(N)nc2n1`: the Kd is > 4 mM (inactive).
For `CC(=O)OCC(=O)[C@@]1(O)CCC2C3CC[C@@H]4C[C@H](OC(C)=O)CC[C@]4(C)C3C(=O)C[C@@]21C` (stereo partly drawn) the value was > 4 mM (inactive).
For `NC(=O)c1c(Cl)nsc1-c1ccccc1Cl` the value was > 4 mM (inactive).
For `CSc1ccc(/C=N/n2c(C)nnc2C)cc1` the value was > 4 mM (inactive); for `Cc1nnsc1C(=O)O`, > 4 mM (inactive).
Take `CN(C)S(=O)(=O)Nc1ccc(Br)cc1F`: the Kd is > 4 mM (inactive).
In the case of `O=S(=O)(Cc1ccccc1)N1CCCCCC1`, the Kd was > 4 mM (inactive).
For `Cc1c(C(=O)NC2=NCCS2)oc2ccccc12`, the Kd is > 4 mM (inactive).
`CCOc1ccc(C(=O)c2ccncc2)cc1`: the Kd is > 4 mM (inactive).
With `C=C1C(N)CC2CC1C2(C)C` (stereo not drawn), the Kd was > 4 mM (inactive).
For `CCSc1nc2ccccc2[nH]1` the value was > 4 mM (inactive); for `O=S1(=O)CCC(NCCO)C1` (stereo not drawn), > 4 mM (inactive).
To `O=C1OC(N2CCOCC2)c2ccccc21` (stereo not drawn) belongs > 4 mM (inactive); to `Nc1cc(=O)[nH]c(SCC(=O)NC2CCCCC2)n1`, > 4 mM (inactive).
To `OCCNC(=S)Nc1ccc(F)cc1` belongs > 4 mM (inactive); to `NC(=O)C1CCN(c2ccc(Cl)nn2)CC1`, > 4 mM (inactive); to `Oc1ccc(-n2ccnc2)cc1`, > 4 mM (inactive).
Take `COc1ccc(-c2c(OC)c3c(OC)c4c(cc3oc2=O)OC(C)(C)C=C4)cc1`: the Kd is > 4 mM (inactive).
To `CC(=O)OC1CCC2(O)CC1(C)CCC1C2CC1(C)C` (stereo not drawn) belongs > 4 mM (inactive); to `O=C1c2cccc3cc(S(=O)(=O)O)cc(c23)C(=O)N1O`, > 4 mM (inactive); to `Nc1nc(-c2ccc(F)c(F)c2)cs1`, > 4 mM (inactive).
In the case of `COc1ccc2nc(NC(=O)c3cnccn3)sc2c1`, the Kd is > 4 mM (inactive).
Turning to `NC(=O)COc1ccccc1O`, the Kd was > 4 mM (inactive).
